Results published in PubChem BioAssay (NCI).
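Five compound concentrations were applied to cells in 96-well plates for 48 hours; endpoints were derived by simple linear interpolation of the resulting dose-response curve. GI50 is the concentration that inhibits growth by half. TGI denotes the concentration required for complete inhibition of growth.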

Legend:
Assay in all cases: DTP human tumour cell line panel, 48 h
[1] = test system: 786-0 renal
[2] = test system: A498 renal
[3] = test system: A549 NSCLC
[4] = test system: ACHN renal
[5] = test system: BT-549 breast
[6] = test system: CAKI-1 renal
[7] = test system: COLO 205 colon
[8] = test system: DU-145 prostate
[9] = test system: HCC-2998 colon
[10] = test system: HCT-116 colon
[11] = test system: HCT-15 colon
[12] = test system: HL-60(TB) leukemia
[13] = test system: HOP-62 NSCLC
[14] = test system: HOP-92 NSCLC
[15] = test system: HS 578T breast
[16] = test system: HT29 colon
[17] = test system: IGROV1 ovarian
[18] = test system: K-562 leukemia
[19] = test system: KM12 colon
[20] = test system: LOX IMVI melanoma
[21] = test system: M14 melanoma
[22] = test system: MALME-3M melanoma
[23] = test system: MCF7 breast
[24] = test system: MDA-MB-231 breast
[25] = test system: MDA-MB-435
[26] = test system: MOLT-4 leukemia
[27] = test system: NCI-H226 lung
[28] = test system: NCI-H23 lung
[29] = test system: NCI-H460 lung
[30] = test system: NCI/ADR-RES ovarian
[31] = test system: OVCAR-3 ovarian
[32] = test system: OVCAR-4 ovarian
[33] = test system: OVCAR-5 ovarian
[34] = test system: OVCAR-8 ovarian
[35] = test system: PC-3 prostate
[36] = test system: RPMI-8226 leukemia
[37] = test system: RXF 393 renal
[38] = test system: SF-268 CNS
[39] = test system: SF-295 CNS
[40] = test system: SF-539 CNS
[41] = test system: SK-MEL-2 melanoma
[42] = test system: SK-MEL-28 melanoma
[43] = test system: SK-MEL-5 melanoma
[44] = test system: SK-OV-3 ovarian
[45] = test system: SN12C renal
[46] = test system: SNB-19 CNS
[47] = test system: SNB-75 CNS
[48] = test system: SR leukemia
[49] = test system: SW-620 colon
[50] = test system: T-47D breast
[51] = test system: TK-10 renal
[52] = test system: U251 CNS
[53] = test system: UACC-257 melanoma
[54] = test system: UACC-62 melanoma
[55] = test system: UO-31 renal

O=C(O)c1cc2ccccc2c2c3c(ccc12)OCO3
GI50 [1]: 273 µM | TGI [1]: 936 µM | GI50 [2]: 125 µM | TGI [2]: 324 µM | GI50 [3]: 197 µM | TGI [3]: 621 µM | GI50 [4]: 221 µM | TGI [4]: > 1000 µM | GI50 [5]: 119 µM | TGI [5]: 390 µM | GI50 [6]: 185 µM | TGI [6]: 761 µM | GI50 [7]: 171 µM | TGI [7]: 368 µM | GI50 [8]: 303 µM | TGI [8]: > 1000 µM | GI50 [9]: 225 µM | TGI [9]: 763 µM | GI50 [10]: 262 µM | TGI [10]: > 1000 µM | GI50 [11]: 245 µM | TGI [11]: > 1000 µM | GI50 [12]: 172 µM | TGI [12]: 440 µM | GI50 [13]: 176 µM | TGI [13]: 697 µM | GI50 [14]: 18.7 µM | TGI [14]: 96.5 µM | GI50 [15]: 129 µM | TGI [15]: 522 µM | GI50 [16]: 281 µM | TGI [16]: 791 µM | GI50 [17]: 201 µM | TGI [17]: 738 µM | GI50 [18]: 259 µM | TGI [18]: > 1000 µM | GI50 [19]: 219 µM | TGI [19]: 702 µM | GI50 [20]: 223 µM | TGI [20]: 766 µM | GI50 [21]: 179 µM | TGI [21]: 493 µM | GI50 [22]: 140 µM | TGI [22]: 361 µM | GI50 [23]: 227 µM | TGI [23]: 895 µM | GI50 [24]: 165 µM | TGI [24]: > 1000 µM | GI50 [25]: 172 µM | TGI [25]: 519 µM | GI50 [26]: 192 µM | TGI [26]: 513 µM | GI50 [27]: 123 µM | TGI [27]: 818 µM | GI50 [28]: 188 µM | TGI [28]: 584 µM | GI50 [29]: 265 µM | TGI [29]: > 1000 µM | GI50 [30]: 210 µM | TGI [30]: 754 µM | GI50 [31]: 183 µM | TGI [31]: 468 µM | GI50 [32]: 170 µM | TGI [32]: 808 µM | GI50 [33]: 279 µM | TGI [33]: > 1000 µM | GI50 [34]: 186 µM | TGI [34]: 717 µM | GI50 [35]: 166 µM | TGI [35]: 559 µM | GI50 [36]: 139 µM | TGI [36]: 738 µM | GI50 [37]: 146 µM | TGI [37]: 342 µM | GI50 [38]: 188 µM | TGI [38]: 580 µM | GI50 [39]: 157 µM | TGI [39]: 618 µM | GI50 [40]: 132 µM | TGI [40]: 337 µM | GI50 [41]: 166 µM | TGI [41]: 333 µM | GI50 [42]: 167 µM | TGI [42]: 491 µM | GI50 [43]: 133 µM | TGI [43]: 281 µM | GI50 [44]: 236 µM | TGI [44]: 739 µM | GI50 [45]: 174 µM | TGI [45]: > 1000 µM | GI50 [46]: 152 µM | TGI [46]: 849 µM | GI50 [47]: 77.8 µM | TGI [47]: 265 µM | GI50 [48]: 136 µM | TGI [48]: 507 µM | GI50 [49]: 245 µM | TGI [49]: > 1000 µM | GI50 [50]: 209 µM | TGI [50]: 750 µM | GI50 [51]: 231 µM | TGI [51]: 616 µM | GI50 [52]: 134 µM | TGI [52]: 478 µM | GI50 [53]: 220 µM | TGI [53]: 600 µM | GI50 [54]: 116 µM | TGI [54]: 279 µM | GI50 [55]: 116 µM | TGI [55]: 484 µM
